In ChEMBL document CHEMBL1153652, “Synthesis and biological activity of modified enediyne chemotypes” (Bioorg Med Chem Lett, 1994):

Legend:
[1] = tested on: Nucleic Acid; test: In vitro DNA cleaving activity which induce cell filamentation was evaluated by inducement of the SOS response at a dose of 40 ug/ml.; type: functional
[2] = tested on: Nucleic Acid; test: In vitro ability to cleave DNA using supercoiled pM2 DNA with beta-mercaptoethanol at drug concentrations of 2E-5; Greater activity; type: functional
[3] = tested on: HCT-116; test: Inhibitory concentration was determined for cytotoxicity in HCT116 human colon cancer cell line; type: functional, cell-based
[4] = tested on: Nucleic Acid; test: In vitro DNA cleaving activity which induce cell filamentation was evaluated by inducement of the SOS response at a dose of 200 ug/ml.; type: functional
[5] = tested on: Nucleic Acid; test: In vitro ability to cleave DNA using supercoiled pM2 DNA without beta-mercaptoethanol at drug concentrations of 2E-5; Greater activity; type: functional
[6] = tested on: Nucleic Acid; test: In vitro DNA cleaving activity which induce cell filamentation was evaluated by inducement of the SOS response at a dose of 1000 ug/ml.; type: functional
[7] = tested on: Mus musculus; test: In vivo relative median survival time of drug treated and control mice in murine Madison 109 (M109) lung carcinoma cells at 64 mg/kg/inj.; type: functional
[8] = tested on: HCT-116; test: Inhibitory concentration was determined for cytotoxicity in HCT116 human colon cancer cell line.; type: functional, cell-based
[9] = tested on: Mus musculus; test: In vivo relative median survival time of drug treated and control mice in murine Madison 109 (M109) lung carcinoma cells at 16 mg/kg/inj.; type: functional
[10] = tested on: Nucleic Acid; test: In vitro ability to cleave DNA using supercoiled pM2 DNA without beta-mercaptoethanol at a drug concentration of 2E-5; Greater activity; type: functional
[11] = tested on: Nucleic Acid; test: In vitro ability to cleave DNA using supercoiled pM2 DNA with beta-mercaptoethanol at a drug concentration of 2E-5; Greater activity; type: functional

Compound	Area [1] [mm²]	DNA cleavage [2]	IC50 [3] [µM]	Area [4] [mm²]	DNA cleavage [5]	Area [6] [mm²]	T/C [7] [%]	IC50 [8] [µM]	T/C [9] [%]	DNA cleavage [10]	DNA cleavage [11]
O=C1C2=CCCC1(O)C#CC1=C(C#C[C@H]2O)CCC1 (stereo partly specified)	0	Greater activity	2.2	75	Greater activity	162	147				
O=C1C2=CCCC1(O)C#Cc1ccccc1C#C[C@H]2O (stereo partly specified)	0	Greater activity		0	Greater activity	0	107	1.8			
O=C1C2=CCCC1(O)C#C/C=C\C#C[C@H]2O (stereo partly specified)	427			954		1620		0.1	144	Greater activity	Greater activity
